Where a SMILES comes first, the peptide text is derived from it. Bridges are numbered along the chain shown (N, C = ends).

For one experiment, the target named is T1, Nav1.4 (Homo sapiens, UniProt P35499).
T1 construct: expressed in transfected cells; host or cells: HEK293
Description: Whole-cell patch clamp on Nav1.4 overexpressing HEK293 cells. It is filed as cell-based. The conditions noted are these: 300 nM; −90 mV to +40 mV, 30 ms; n=5. As to the method: (§1) The effect of the polypeptide PPN-01 provided in Example 1 on voltage gated sodium channels is studied using the glass microelectrodes prepared as described above in Example 2 and employing the whole-cell membrane clamp techniques. The specific operations are as follows:
(§2) 1. Firstly, internal electrode solution is placed on ice to defrost; after defrosting, an appropriate amount of internal electrode solution is drawn up with a 1 ml syringe; and after a homemade filler is applied to the tip end of the syringe, the air in the tube is emptied to fill the entire filler with internal electrode solution. Secondly, internal electrode solution in the filler is poured into the glass microelectrode from a rear part thereof by using the rear part perfusion method; internal electrode solution is slowly injected into the glass microelectrode; and the amount of perfusion is generally ⅓ to ½ of a length of the glass microelectrode (it is necessary to ensure that the silver wire of the electrode may fully contact internal electrode solution, but also to avoid electrode contamination resulting from too much internal electrode solution). […]
Background: The patch-clamp technique gives a direct electrical read-out from membranes.

A further experiment deals with sciatic nerve in rats. Description: Compound action potential (CAP) of the sciatic nerve in rats. In kind it is in vivo, Sprague-Dawley (SD) rats. The note with it: 20 μL of 30, 100, 300 nM on sciatic nerve; before and after needling; vs negative control group (p<0.05). As to the method:
Four SPF-grade healthy Sprague-Dawley (SD) rats are randomly selected, half males and half females, weighing 180˜200 g, 6˜8 weeks old. The rats are first acclimatized and fed for 1 week, fasted for 12 h before the experiment, with free access to water.
Rats weighing between 180 g and 200 g are taken and anesthetized with 7% chloral hydrate solution at a concentration of 0.4 mL/100 g. […] Then, the fully anesthetized rats are placed on the operating table so that their backs are facing upwards and their paws are held in place with a string. The skin and connective tissue of the leg are cut sequentially, and the muscles between the biceps femoris and the gluteus superficialis are bluntly-dissected. […]
Observations are performed on rats in the polypeptide PPN-01 group and in the negative control drug lidocaine group, and the effect of each concentration of polypeptide PPN-01 on the peak amplitude of the positive and negative phases of the CAP in the sciatic nerve of rats is assessed by the inhibition rate. […]
Four to six CAPs within 2 min after each recording time period are selected for analysis, and the mean peak amplitude is calculated as the representative CAP peak amplitude and time course for each group, with the peak amplitude of the CAP being the difference between the baseline and the peak CAP.

For the next experiment, the target named is T2, Nav1.6 (Homo sapiens, UniProt Q9UQD0).
T2 construct: expressed in transfected cells; host or cells: HEK293
T2 sequence (Q9UQD0 whole entry): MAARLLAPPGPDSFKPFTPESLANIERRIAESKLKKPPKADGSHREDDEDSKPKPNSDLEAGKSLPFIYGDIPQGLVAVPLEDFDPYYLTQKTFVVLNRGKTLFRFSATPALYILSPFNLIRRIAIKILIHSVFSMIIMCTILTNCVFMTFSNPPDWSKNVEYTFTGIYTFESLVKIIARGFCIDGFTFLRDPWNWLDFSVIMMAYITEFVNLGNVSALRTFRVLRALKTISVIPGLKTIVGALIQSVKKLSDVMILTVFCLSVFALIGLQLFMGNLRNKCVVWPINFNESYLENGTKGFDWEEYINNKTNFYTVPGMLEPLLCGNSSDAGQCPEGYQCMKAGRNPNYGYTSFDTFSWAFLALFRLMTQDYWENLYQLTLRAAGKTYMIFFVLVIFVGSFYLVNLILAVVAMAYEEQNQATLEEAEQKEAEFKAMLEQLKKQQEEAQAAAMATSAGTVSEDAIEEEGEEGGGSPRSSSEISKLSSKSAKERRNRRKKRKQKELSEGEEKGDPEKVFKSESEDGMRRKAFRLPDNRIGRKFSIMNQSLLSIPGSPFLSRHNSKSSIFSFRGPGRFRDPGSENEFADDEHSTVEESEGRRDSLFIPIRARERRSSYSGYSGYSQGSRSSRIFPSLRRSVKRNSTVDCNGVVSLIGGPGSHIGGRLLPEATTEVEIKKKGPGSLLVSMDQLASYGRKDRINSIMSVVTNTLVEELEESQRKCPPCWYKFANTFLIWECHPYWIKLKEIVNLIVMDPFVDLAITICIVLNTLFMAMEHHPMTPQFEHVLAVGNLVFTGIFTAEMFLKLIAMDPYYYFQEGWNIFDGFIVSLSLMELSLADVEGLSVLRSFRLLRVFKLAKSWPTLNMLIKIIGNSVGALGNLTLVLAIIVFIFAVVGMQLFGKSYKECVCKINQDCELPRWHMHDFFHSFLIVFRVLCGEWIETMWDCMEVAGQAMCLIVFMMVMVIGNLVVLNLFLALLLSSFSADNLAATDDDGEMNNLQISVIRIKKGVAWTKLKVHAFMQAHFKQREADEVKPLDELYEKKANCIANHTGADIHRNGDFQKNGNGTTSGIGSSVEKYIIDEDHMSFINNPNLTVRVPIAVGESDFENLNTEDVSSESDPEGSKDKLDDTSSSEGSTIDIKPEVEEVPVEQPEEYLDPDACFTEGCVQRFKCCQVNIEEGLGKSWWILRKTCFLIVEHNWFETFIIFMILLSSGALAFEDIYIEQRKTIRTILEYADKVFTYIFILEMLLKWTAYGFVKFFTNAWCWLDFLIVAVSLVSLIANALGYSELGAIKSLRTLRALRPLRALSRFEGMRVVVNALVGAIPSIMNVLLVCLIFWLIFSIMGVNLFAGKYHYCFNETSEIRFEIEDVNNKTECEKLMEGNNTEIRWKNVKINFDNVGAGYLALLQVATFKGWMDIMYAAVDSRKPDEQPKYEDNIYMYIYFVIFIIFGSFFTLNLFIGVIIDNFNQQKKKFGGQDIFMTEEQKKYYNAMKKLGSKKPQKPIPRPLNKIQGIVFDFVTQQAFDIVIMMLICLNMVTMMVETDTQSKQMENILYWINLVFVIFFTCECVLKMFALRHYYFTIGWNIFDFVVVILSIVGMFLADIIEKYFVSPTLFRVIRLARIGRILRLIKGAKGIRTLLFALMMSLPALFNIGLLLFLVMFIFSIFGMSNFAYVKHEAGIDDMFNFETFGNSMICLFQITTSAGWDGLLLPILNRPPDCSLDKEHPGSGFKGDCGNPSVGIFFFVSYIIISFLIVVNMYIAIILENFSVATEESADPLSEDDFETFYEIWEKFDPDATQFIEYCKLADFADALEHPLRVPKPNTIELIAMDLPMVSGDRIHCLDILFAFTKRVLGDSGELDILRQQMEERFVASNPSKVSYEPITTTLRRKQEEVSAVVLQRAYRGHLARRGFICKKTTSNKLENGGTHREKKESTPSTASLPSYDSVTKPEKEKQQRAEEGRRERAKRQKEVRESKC
Description: Whole-cell patch clamp on Nav1.6 overexpressing HEK293 cells. The note with it: 300 nM; −90 mV to +40 mV, 30 ms; n=5. In kind it is cell-based. As to the method: as §1, §2

A further experiment addresses T3, Nav1.5 (Homo sapiens, UniProt Q14524).
T3 construct: expressed in transfected cells; host or cells: HEK293
Description: Whole-cell patch clamp on Nav1.5 overexpressing HEK293 cells. The note with it: 300 nM; −90 mV to +40 mV, 30 ms; n=5. In kind it is cell-based. As to the method: as §1, §2

T3 sequence (Q14524 whole entry): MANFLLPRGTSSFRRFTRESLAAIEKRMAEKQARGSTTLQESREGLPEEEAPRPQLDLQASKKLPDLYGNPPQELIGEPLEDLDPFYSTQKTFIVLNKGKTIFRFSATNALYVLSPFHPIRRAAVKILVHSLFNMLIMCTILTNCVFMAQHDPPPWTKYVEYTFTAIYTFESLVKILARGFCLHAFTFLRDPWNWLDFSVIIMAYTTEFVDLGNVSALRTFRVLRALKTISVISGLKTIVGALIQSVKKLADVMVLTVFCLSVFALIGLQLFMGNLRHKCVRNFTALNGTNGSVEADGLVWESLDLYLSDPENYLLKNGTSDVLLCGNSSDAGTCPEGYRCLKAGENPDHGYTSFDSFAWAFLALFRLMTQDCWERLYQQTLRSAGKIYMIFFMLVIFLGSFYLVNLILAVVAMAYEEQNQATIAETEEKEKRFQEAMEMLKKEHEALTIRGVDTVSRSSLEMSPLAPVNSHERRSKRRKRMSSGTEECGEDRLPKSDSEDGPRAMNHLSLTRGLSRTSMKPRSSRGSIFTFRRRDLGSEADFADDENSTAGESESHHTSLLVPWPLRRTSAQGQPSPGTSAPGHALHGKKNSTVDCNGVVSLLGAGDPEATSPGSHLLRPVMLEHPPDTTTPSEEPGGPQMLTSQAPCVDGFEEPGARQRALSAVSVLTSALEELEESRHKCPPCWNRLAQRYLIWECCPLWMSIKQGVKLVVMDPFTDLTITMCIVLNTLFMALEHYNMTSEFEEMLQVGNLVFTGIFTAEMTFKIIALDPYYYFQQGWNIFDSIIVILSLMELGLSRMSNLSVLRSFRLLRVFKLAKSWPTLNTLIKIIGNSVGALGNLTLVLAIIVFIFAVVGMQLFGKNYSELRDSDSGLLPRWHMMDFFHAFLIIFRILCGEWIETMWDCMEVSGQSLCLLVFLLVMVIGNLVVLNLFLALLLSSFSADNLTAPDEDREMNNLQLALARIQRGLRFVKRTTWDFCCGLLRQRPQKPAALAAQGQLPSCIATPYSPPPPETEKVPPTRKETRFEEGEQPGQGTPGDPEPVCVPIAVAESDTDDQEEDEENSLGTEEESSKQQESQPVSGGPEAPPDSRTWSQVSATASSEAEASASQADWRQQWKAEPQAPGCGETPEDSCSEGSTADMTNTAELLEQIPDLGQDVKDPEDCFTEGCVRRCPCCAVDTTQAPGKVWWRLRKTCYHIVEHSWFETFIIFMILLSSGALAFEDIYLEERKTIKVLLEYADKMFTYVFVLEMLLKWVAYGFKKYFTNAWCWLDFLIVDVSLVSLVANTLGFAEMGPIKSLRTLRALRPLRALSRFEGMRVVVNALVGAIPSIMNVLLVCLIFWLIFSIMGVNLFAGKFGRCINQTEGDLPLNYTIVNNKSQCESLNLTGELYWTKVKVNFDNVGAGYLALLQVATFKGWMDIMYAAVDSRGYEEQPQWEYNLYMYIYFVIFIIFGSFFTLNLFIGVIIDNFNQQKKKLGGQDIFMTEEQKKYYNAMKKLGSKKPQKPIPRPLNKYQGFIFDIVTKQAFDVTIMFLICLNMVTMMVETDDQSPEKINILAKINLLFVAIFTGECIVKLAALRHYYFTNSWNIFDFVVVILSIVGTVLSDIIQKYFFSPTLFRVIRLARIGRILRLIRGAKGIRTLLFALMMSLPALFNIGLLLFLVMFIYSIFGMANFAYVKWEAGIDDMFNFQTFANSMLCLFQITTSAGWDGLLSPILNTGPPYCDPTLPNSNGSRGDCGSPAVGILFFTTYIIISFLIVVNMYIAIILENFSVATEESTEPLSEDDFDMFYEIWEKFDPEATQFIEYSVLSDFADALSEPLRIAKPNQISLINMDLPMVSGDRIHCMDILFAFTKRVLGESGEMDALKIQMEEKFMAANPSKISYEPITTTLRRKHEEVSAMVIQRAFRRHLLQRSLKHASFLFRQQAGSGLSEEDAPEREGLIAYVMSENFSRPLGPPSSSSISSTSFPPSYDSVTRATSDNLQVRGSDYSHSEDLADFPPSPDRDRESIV

Turning to `CSCC[C@@H]1NC(=O)CNC(=O)[C@H](CCC(=O)O)NC(=O)[C@@H]2CSSC[C@H](NC(=O)[C@H](Cc3ccc(O)cc3)NC(C)=O)C(=O)N[C@@H](CCC(N)=O)C(=O)N[C@@H](CCCCN)C(=O)N[C@@H](Cc3ccccc3)C(=O)N[C@@H](CC(C)C)C(=O)N[C@@H](C)C(=O)N3CCC[C@H]3C(=O)N[C@H]3CSSC[C@H](NC(=O)[C@H](CCC(=O)O)NC1=O)C(=O)N[C@@H](CCCCN)C(=O)N[C@@H](CC(C)C)C(=O)N[C@@H](Cc1c[nH]c4ccccc14)C(=O)N[C@H](C(=O)N[C@@H](CCCCN)C(=O)N[C@@H](CCCCN)C(=O)N[C@@H](CCCCN)C(=O)N[C@@H](CC(C)C)C(=O)N[C@@H](Cc1c[nH]c4ccccc14)C(N)=O)CSSC[C@H](NC(=O)[C@H](CCCCN)NC(=O)[C@H](CCCNC(=N)N)NC(=O)[C@H](CCC(=O)O)NC(=O)[C@H](CO)NC(=O)[C@H](CC(=O)O)NC3=O)C(=O)N2` [PPN-01] (Ac-YCQKFLAPCDSERKCCEGMECKLWCKKKLW-NH2; disulfide 2-16, 9-21, 15-25), at Nav1.4, the “inhibition effect on Nav1.4 overexpressing HEK293 cells” value is “no significant inhibition effect”. Also, the “peak amplitude of CAP (positive and negative phases)” value in the experiment with sciatic nerve in rats was “significantly decreased”. The “inhibition effect on Nav1.6 overexpressing HEK293 cells” value against Nav1.6 is given as “no significant inhibition effect”. Further, at Nav1.5, the “inhibition effect on Nav1.5 overexpressing HEK293 cells” value is “no significant inhibition effect”.

These data come from patent publication US20260042802A1, “POLYPEPTIDE AND USE THEREOF” (priority 2024, published 2026).
